Laboratory results reported in ChEMBL document CHEMBL5465560, “Selectivity Literature for EUbOPEN Chemogenomic Library” (2024).

Assays:
[1] = target: Casein kinase II subunit alpha (Homo sapiens, UniProt P68400); assay: Selectivity interaction (KinomeScan (DiscoverX)) EUB0000092b CSNK2A1; conditions: at 10 µM
[2] = target: Serine/threonine-protein kinase WNK2 (Homo sapiens) (UniProt Q9Y3S1); assay: Selectivity interaction (Upstate Kinase Profiler service (Millipore)) EUB0000056c WNK2; conditions: at 1 µM
Sequence of Serine/threonine-protein kinase WNK2 (Homo sapiens) (Q9Y3S1 whole entry): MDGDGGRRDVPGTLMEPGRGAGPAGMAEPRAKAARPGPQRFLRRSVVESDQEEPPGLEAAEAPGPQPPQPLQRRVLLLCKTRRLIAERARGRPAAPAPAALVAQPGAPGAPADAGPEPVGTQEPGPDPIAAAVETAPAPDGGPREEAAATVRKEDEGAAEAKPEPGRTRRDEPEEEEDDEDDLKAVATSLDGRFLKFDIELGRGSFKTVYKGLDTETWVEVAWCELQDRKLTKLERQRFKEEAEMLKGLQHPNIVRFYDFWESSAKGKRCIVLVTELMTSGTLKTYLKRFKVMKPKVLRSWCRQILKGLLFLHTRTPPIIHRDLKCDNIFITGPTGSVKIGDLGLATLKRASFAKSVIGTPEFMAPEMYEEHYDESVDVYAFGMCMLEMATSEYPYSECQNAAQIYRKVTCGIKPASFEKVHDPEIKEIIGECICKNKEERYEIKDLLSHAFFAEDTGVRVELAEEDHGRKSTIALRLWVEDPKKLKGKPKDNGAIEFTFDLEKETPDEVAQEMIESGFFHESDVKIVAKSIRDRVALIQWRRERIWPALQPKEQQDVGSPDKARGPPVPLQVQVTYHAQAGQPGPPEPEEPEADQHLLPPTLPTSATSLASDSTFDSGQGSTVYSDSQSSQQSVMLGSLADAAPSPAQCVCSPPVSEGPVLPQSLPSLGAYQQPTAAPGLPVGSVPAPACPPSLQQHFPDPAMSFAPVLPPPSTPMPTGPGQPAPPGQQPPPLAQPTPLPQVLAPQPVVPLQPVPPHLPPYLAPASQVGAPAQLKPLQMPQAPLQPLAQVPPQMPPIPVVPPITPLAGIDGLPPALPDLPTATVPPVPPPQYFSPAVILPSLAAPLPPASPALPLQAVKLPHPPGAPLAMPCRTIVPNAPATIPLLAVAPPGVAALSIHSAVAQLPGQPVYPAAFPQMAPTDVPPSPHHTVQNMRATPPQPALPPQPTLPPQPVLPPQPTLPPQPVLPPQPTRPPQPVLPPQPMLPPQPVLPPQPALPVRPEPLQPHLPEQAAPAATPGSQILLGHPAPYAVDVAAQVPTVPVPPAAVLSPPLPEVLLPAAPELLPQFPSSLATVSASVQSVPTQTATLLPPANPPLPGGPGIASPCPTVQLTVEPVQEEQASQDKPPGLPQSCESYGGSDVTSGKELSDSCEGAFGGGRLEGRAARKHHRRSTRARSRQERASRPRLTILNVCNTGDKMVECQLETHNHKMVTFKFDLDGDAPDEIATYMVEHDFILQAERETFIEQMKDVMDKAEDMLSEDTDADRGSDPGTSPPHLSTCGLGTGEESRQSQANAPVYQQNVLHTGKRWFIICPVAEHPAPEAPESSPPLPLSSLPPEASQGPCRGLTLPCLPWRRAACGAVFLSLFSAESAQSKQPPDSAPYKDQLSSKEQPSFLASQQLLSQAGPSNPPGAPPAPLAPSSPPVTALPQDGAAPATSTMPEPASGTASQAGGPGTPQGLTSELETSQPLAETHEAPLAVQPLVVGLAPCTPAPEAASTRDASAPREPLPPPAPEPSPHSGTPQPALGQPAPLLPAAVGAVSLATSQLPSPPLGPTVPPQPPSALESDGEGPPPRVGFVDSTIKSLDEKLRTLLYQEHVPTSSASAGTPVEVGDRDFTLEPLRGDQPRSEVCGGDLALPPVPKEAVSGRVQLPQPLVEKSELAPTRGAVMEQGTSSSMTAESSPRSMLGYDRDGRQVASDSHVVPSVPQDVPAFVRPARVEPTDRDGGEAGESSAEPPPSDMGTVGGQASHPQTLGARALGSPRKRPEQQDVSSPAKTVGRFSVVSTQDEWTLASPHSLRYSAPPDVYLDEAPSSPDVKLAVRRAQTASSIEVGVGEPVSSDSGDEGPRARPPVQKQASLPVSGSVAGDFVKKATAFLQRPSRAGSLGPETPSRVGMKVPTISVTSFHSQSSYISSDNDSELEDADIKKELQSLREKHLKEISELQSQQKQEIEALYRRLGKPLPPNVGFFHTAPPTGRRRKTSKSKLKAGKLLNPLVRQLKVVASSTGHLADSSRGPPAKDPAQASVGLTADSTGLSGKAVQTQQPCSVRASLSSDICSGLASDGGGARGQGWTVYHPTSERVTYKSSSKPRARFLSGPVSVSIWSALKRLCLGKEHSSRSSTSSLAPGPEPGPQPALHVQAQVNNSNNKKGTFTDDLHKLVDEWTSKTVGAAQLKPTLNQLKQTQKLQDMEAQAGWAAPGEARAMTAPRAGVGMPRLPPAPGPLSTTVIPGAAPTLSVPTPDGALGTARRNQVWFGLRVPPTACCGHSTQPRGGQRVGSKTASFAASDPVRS

[3] = target: T1, Serine/threonine-protein kinase 36 (Homo sapiens) (UniProt Q9NRP7); assay: Selectivity interaction (KinomeScan (DiscoverX)) EUB0000655a STK36; conditions: at 10 µM
T1 sequence (whole entry): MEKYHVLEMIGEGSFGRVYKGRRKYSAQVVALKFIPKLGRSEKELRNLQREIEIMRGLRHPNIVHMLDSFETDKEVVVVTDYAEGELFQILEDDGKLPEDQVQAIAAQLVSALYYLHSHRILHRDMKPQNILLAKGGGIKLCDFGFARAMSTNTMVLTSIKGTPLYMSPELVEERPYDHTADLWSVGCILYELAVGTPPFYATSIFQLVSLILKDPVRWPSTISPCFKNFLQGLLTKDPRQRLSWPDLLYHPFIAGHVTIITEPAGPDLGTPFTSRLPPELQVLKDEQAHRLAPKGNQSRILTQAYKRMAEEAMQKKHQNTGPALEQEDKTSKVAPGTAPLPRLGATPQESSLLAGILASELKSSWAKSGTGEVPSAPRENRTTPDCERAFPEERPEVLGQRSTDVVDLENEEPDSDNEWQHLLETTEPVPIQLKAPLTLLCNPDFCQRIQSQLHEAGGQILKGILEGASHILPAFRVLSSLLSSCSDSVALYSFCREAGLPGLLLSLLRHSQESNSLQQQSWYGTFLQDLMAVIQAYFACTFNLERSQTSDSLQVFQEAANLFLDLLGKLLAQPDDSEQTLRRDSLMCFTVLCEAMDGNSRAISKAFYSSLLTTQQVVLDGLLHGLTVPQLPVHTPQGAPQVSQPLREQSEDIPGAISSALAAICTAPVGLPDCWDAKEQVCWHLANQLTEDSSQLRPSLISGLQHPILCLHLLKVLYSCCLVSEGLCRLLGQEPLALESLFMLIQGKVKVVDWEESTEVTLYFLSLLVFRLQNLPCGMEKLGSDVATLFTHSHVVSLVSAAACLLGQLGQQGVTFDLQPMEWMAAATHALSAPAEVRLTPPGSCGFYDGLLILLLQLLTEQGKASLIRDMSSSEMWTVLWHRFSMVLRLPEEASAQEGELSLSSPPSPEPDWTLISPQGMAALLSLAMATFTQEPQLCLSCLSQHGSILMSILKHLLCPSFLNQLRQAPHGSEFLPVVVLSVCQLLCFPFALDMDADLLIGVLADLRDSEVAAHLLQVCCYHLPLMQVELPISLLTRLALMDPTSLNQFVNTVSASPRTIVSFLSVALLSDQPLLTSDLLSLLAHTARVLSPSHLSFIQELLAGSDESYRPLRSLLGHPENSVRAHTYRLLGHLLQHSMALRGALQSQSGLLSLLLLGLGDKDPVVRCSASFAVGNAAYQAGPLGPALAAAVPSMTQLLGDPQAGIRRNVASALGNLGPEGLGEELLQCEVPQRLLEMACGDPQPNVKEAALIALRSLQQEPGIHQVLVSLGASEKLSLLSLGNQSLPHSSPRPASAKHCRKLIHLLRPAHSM

[4] = target: Phosphatidylinositol 4,5-bisphosphate 3-kinase catalytic subunit gamma isoform (Homo sapiens) (UniProt P48736); assay: Selectivity interaction (KinomeScan (DiscoverX)) EUB0000666a PIK3CG; conditions: at 10 µM
Sequence of Phosphatidylinositol 4,5-bisphosphate 3-kinase catalytic subunit gamma isoform (Homo sapiens) (P48736 whole entry, looked up, canonical isoform): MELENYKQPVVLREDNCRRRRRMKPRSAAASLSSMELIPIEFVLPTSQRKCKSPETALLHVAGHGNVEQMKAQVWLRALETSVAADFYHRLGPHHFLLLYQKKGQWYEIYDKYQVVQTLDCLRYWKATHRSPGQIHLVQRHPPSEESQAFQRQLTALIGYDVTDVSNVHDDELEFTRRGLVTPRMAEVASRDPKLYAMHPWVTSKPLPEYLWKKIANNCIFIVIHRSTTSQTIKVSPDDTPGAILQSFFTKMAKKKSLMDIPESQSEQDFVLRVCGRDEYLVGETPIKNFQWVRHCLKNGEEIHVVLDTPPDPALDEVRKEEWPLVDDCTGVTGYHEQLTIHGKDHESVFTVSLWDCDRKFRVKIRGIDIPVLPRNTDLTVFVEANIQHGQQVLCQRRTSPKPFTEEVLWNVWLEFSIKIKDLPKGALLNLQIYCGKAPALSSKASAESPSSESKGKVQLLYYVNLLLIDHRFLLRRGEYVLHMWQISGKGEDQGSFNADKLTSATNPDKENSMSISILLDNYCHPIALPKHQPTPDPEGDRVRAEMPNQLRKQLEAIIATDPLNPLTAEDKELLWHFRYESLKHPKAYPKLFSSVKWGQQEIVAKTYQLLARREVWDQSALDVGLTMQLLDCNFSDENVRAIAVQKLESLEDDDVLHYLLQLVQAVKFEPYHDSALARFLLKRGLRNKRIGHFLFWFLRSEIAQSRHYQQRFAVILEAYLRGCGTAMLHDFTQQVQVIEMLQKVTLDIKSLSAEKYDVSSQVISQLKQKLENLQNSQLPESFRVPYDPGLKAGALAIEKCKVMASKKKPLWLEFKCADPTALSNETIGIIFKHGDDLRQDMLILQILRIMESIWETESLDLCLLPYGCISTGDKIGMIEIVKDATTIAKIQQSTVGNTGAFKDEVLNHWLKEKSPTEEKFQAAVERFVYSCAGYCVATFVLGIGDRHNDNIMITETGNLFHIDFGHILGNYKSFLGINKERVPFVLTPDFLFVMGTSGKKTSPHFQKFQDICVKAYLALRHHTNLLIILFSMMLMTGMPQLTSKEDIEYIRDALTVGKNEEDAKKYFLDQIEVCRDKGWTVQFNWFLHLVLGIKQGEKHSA

[5] = target: T2, Tyrosine-protein kinase ZAP-70 (Homo sapiens) (UniProt P43403); assay: Selectivity interaction (Millipore kinase profiler) EUB0000124b ZAP70; conditions: at 10 µM
T2 sequence (whole entry): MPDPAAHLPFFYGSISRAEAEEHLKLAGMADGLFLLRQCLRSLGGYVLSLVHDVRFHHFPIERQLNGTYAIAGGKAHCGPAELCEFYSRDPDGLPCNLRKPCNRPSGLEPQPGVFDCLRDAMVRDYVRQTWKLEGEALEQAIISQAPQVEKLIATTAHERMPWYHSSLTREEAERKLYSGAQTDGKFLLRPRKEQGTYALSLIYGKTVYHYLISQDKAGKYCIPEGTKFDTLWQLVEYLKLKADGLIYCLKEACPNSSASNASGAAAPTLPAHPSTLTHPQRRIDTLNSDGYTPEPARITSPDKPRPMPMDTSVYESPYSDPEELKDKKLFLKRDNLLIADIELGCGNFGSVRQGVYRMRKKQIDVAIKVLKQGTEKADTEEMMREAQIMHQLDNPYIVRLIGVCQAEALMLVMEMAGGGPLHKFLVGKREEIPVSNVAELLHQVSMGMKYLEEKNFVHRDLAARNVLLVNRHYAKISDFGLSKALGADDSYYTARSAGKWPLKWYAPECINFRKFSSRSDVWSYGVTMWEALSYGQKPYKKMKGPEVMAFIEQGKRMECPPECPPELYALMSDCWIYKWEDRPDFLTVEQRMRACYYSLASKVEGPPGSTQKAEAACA

[6] = target: Zinc finger CW-type PWWP domain protein 1 (Homo sapiens) (UniProt Q9H0M4); assay: Selectivity interaction (PWWP, WD40, and Tudor domain panel (DSLS measurements, literature)) EUB0000270b ZCWPW1
Sequence of Zinc finger CW-type PWWP domain protein 1 (Homo sapiens) (Q9H0M4 whole entry, the tested form may be a part): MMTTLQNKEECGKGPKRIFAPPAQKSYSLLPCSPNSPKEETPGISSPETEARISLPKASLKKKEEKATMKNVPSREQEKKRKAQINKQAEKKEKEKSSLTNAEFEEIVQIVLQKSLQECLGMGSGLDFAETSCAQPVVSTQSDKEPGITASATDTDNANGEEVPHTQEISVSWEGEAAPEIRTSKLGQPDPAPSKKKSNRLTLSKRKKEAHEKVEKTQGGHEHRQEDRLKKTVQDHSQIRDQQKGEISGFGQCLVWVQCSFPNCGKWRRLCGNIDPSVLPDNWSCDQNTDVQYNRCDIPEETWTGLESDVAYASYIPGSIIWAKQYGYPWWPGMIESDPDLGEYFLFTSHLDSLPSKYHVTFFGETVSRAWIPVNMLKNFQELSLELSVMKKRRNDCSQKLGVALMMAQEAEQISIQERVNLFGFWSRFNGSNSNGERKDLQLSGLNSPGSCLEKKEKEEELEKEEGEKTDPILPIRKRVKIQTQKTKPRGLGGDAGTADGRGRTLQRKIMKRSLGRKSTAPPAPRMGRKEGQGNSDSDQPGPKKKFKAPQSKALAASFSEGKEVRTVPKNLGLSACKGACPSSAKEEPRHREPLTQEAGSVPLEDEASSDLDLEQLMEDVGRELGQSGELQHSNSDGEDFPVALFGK

[7] = target: Serine/threonine-protein kinase PAK 6 (Homo sapiens) (UniProt Q9NQU5); assay: Selectivity interaction (KinomeScan (DiscoverX)) EUB0000595a PAK6; conditions: at 10 µM
Sequence of Serine/threonine-protein kinase PAK 6 (Homo sapiens) (Q9NQU5 whole entry, looked up): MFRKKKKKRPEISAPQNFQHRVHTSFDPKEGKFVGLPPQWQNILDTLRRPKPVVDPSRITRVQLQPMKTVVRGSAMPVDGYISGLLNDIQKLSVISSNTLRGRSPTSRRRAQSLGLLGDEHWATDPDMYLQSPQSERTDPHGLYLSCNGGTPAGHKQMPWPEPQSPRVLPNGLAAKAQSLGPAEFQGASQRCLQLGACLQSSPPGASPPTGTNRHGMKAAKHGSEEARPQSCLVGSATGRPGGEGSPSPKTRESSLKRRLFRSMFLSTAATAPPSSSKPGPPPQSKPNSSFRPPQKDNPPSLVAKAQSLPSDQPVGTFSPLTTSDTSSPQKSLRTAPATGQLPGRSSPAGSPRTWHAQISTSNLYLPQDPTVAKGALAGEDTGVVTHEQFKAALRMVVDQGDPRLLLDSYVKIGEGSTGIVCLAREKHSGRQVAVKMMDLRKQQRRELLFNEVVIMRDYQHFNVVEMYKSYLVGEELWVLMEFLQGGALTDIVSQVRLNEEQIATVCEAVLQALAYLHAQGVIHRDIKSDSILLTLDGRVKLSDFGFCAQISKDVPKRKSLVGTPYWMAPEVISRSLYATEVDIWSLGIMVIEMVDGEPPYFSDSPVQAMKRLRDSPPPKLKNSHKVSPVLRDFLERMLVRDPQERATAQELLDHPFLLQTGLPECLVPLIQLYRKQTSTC

[8] = target: T3, Cytoplasmic tyrosine-protein kinase BMX (Homo sapiens) (UniProt P51813); assay: Selectivity interaction (KinomeScan (DiscoverX)) EUB0000595a BMX; conditions: at 10 µM
T3 sequence (whole entry): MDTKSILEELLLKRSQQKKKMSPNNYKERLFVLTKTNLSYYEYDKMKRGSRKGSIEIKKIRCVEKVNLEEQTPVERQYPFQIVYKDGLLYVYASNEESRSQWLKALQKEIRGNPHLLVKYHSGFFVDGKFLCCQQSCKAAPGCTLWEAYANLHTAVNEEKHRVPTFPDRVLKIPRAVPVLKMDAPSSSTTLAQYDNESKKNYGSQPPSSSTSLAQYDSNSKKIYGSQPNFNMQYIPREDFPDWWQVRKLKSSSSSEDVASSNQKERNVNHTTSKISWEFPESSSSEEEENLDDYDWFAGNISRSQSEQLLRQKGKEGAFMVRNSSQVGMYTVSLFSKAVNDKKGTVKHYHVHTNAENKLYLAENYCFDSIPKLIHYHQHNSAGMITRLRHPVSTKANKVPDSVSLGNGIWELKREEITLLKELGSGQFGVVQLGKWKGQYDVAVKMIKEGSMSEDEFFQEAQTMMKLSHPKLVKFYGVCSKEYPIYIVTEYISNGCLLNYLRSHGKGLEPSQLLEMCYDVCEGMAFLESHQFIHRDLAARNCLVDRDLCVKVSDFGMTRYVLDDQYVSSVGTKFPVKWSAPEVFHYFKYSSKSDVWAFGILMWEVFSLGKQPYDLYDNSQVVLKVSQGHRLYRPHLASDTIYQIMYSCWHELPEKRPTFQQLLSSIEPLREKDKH

Sequence of Casein kinase II subunit alpha (P68400 whole entry, looked up): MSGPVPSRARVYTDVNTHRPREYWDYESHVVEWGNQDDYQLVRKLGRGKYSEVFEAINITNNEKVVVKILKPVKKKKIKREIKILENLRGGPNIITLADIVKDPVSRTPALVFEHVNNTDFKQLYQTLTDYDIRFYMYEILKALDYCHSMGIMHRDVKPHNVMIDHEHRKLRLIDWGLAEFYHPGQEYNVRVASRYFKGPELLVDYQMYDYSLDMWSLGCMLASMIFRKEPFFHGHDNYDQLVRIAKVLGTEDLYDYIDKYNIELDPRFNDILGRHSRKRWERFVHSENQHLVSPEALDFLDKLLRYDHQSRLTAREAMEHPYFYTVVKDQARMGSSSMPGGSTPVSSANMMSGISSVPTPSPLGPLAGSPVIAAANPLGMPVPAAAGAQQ

With `CCC(=O)N1CCN(c2ccc(-n3c(=O)ccc4cnc5ccc(-c6cnc7ccccc7c6)cc5c43)cc2C(F)(F)F)CC1` the % of control [1] was 94%.

`Cc1ccc(-c2ccc3c(ccc4sc5c(c43)NC[C@@H](C)NC5=O)n2)cn1` was tested, and the % of inhibition [2] was 1%.

With `CN(C)CCOc1ccc(-c2nc(-c3ccncc3)c(-c3ccc4c(c3)CC/C4=N\O)[nH]2)cc1` the % of control [3] was 35%.

With `O=C(NOC[C@H](O)CO)c1ccc(F)c(F)c1Nc1ccc(I)cc1F` the % of control [4] was 88%.

For `CC(=O)Nc1cccc(-n2c(=O)n(C3CC3)c(=O)c3c(Nc4ccc(I)cc4F)n(C)c(=O)c(C)c32)c1`, the % of control [5] was 111%.

In the case of `Cc1cc(CN)cc(C)c1-c1ncn(C)c1-c1cncn1C`, the dTagg [6] is reported as 0 K.

`COCC(=O)NC/C=C/c1ccc2ncnc(Nc3ccc(Oc4ccc(C)nc4)c(C)c3)c2c1` [CP-724714] was tested, and the % of control [7] was 87% and the % of control [8] was 73%.
